# In patent US20190085289A1, “COMPOSITIONS AND METHODS FOR PATHOGEN INACTIVATION OF PLATELETS” (Cerus Corporation, priority 2017, published 2019):
# Experiments:
# [1] = Stability of S-59 in InterSol PAS protected from ambient light (HPLC); type: physicochemical; settings: for S-59 UV peak area (HPLC) / S-59 concentration (HPLC): 230 μM in InterSol PAS, room temp, protected from light
# Method: Additional studies evaluated stability of the S-59 (amotosalen) pathogen inactivation compound formulated in a platelet additive solution (PAS), but protected from ambient light exposure. A 230 μM solution of S-59 was prepared in the commercially available PAS solution InterSol® (Fenwal Inc.) and maintained at room temperature protected from ambient light conditions. HPLC analysis was performed on samples at times listed in Table 2 for both S-59 and photoproducts.
# [2] = Stability and photoconversion of S-59 in PAS/plasma with platelets and bacteria (HPLC); type: physicochemical; settings: for % S-59 conversion: after UVA
# Method: Another study evaluated 24 hour stability and photoconversion of amotosalen (S-59) in PAS with plasma and platelets, in the presence of bacteria. Two ABO matched platelet units in 100% plasma were pooled, split into two units and InterSol® PAS added (e.g., 65/35). S-59 was added to the test unit at a concentration of 150 but not initially to the control unit. A log culture of K. pneumoniae (˜8 log cfu/mL) was added to the units at a target of ˜60 CFU/unit and the units were incubated in a platelets shaker at 22° C. for approximately 24 hours. At the end of incubation, S-59 was also added to the control unit at the same concentration and both control and test units were subjected to UVA light. Samples were taken pre- and post-UVA illumination for both units bacterial titer assay and HPLC. Post-illumination both units were subjected to a CAD processing step to remove residual amotosalen and photoproducts and stored on a platelet shaker for 7 days to confirm no growth of bacteria.
# K. pneumoniae = experiment: Photochemical inactivation of K. pneumoniae in platelets, bacterial titer assay; type: cell-based
# Method: Another study evaluated 24 hour stability and photoconversion of amotosalen (S-59) in PAS with plasma and platelets, in the presence of bacteria. Two ABO matched platelet units in 100% plasma were pooled, split into two units and InterSol® PAS added (e.g., 65/35). S-59 was added to the test unit at a concentration of 150 but not initially to the control unit. A log culture of K. pneumoniae (˜8 log cfu/mL) was added to the units at a target of ˜60 CFU/unit and the units were incubated in a platelets shaker at 22° C. for approximately 24 hours. At the end of incubation, S-59 was also added to the control unit at the same concentration and both control and test units were subjected to UVA light. Samples were taken pre- and post-UVA illumination for both units bacterial titer assay and HPLC. Post-illumination both units were subjected to a CAD processing step to remove residual amotosalen and photoproducts and stored on a platelet shaker for 7 days to confirm no growth of bacteria. Photochemical inactivation of K. pneumoniae was also measured post-UVA exposure, with the titer (log cfu/mL) results shown in the following table.
# FCV = FCV inactivation with decreasing amounts of S-59 after pre-incubation, plaque assay; type: cell-based, feline calicivirus (FCV); settings: for FCV titer after UVA: UVA ~3 J/cm^2; for FCV log inactivation: vs 0 hr control titer 5.84
# Method: An additional study was performed to evaluate the level of FCV inactivation with decreasing amounts of S-59 after extended incubation (e.g., pre-incubation) in PAS/Plasma. In this study, platelets in PAS/Plasma (65%/35%) were spiked with a stock of FCV at a 1:100 dilution. The FCV-spiked platelets were then split into 16 separate test units. Each unit was dosed with S-59 at approximately 150 μM, 90 μM, 30 μM or 15 μM concentration. Following the addition of S-59 in one of four dosing groups, the platelet units in each dosing group were incubated for 0, 4, 8 or 24 hr prior to illumination. A control sample was taken from each unit for virus titer determination and HPLC analysis of S-59 concentration pre-UVA treatment, followed by UVA light exposure at ˜3 J/cm^2 for photochemical treatment of the test samples. Following UVA treatment, the control and test samples were evaluated for inactivation of FCV using a standard virological plaque assay. […] Control titer at 0 hr pool used for all log inactivation calculations (5.84 log/mL).
# [3] = Control unit (S-59 added after ~24 h incubation, then UVA), Replicate 1
# [4] = Control unit (S-59 added after ~24 h incubation, then UVA), Replicate 2
# [5] = Test unit (S-59 150 present during ~24 h incubation, then UVA), Replicate 1
# [6] = Test unit (S-59 150 present during ~24 h incubation, then UVA), Replicate 2
# [7] = S-59 15 μM, pre-incubation 0 hr
# [8] = S-59 15 μM, pre-incubation 4 hr
# [9] = S-59 15 μM, pre-incubation 8 hr
# [10] = S-59 15 μM, pre-incubation 24 hr
# [11] = S-59 30 μM, pre-incubation 0 hr
# [12] = S-59 30 μM, pre-incubation 4 hr
# [13] = S-59 30 μM, pre-incubation 8 hr
# [14] = S-59 30 μM, pre-incubation 24 hr
# [15] = S-59 90 μM, pre-incubation 0 hr
# [16] = S-59 90 μM, pre-incubation 4 hr
# [17] = S-59 90 μM, pre-incubation 8 hr
# [18] = S-59 90 μM, pre-incubation 24 hr
# [19] = S-59 150 μM, pre-incubation 0 hr
# [20] = S-59 150 μM, pre-incubation 4 hr
# [21] = S-59 150 μM, pre-incubation 8 hr
# [22] = S-59 150 μM, pre-incubation 24 hr
smiles,measurement,setting,value
"Cc1oc2c(C)c3oc(=O)cc(C)c3cc2c1COCCN [S-59, 3-(2-aminoethoxymethyl)-2,5,9-trimethylfuro[3,2-g]chromen-7-one]",S-59 UV peak area (HPLC),[1]; 5.5 hr,3451.6489
same,S-59 concentration (HPLC),[1]; 5.5 hr,232.74 µM
same,S-59 UV peak area (HPLC),[1]; 21.5 hr,3439.4907
same,S-59 concentration (HPLC),[1]; 21.5 hr,231.93 µM
same,S-59 UV peak area (HPLC),[1]; 28.5 hr,3421.447
same,S-59 concentration (HPLC),[1]; 28.5 hr,230.72 µM
same,S-59 UV peak area (HPLC),[1]; 44 hr,3425.1028
same,S-59 concentration (HPLC),[1]; 44 hr,230.96 µM
same,S-59 UV peak area (HPLC),[1]; 45.5 hr,3399.0142
same,S-59 concentration (HPLC),[1]; 45.5 hr,229.22 µM
same,S-59 UV peak area (HPLC),[1]; 53 hr,3421.4934
same,S-59 concentration (HPLC),[1]; 53 hr,230.72 µM
same,S-59 UV peak area (HPLC),[1]; 77 hr,3446.6414
same,S-59 concentration (HPLC),[1]; 77 hr,232.41 µM
same,S-59 UV peak area (HPLC),[1]; T 0,3393.0647
same,S-59 concentration (HPLC),[1]; T 0,228.82 µM
same,loss of S-59,"[1]; InterSol PAS, protected from ambient light, at 77 hours",no loss
same,S-59 concentration stability,"[2]; 24 hour incubation period, control and test units, with K. pneumoniae",stable
same,S-59 concentration,"[2]; Control unit (S-59 added at end of ~24 h incubation), platelets + K. pneumoniae, T_24h, Avg.",149 µM
same,S-59 concentration,"[2]; Control unit (S-59 added at end of ~24 h incubation), T_24h, Replicate 1",144 µM
same,S-59 concentration,"[2]; Control unit (S-59 added at end of ~24 h incubation), T_24h, Replicate 2",153 µM
same,S-59 concentration,"[2]; Control unit (S-59 added at end of ~24 h incubation), T_Post-UVA, Avg.",40 µM
same,S-59 concentration,"[2]; Control unit (S-59 added at end of ~24 h incubation), T_Post-UVA, Replicate 1",43 µM
same,S-59 concentration,"[2]; Control unit (S-59 added at end of ~24 h incubation), T_Post-UVA, Replicate 2",37 µM
same,% S-59 conversion,"[2]; Control unit (S-59 added at end of ~24 h incubation), Avg.",27%
same,% S-59 conversion,"[2]; Control unit (S-59 added at end of ~24 h incubation), Replicate 1",30%
same,% S-59 conversion,"[2]; Control unit (S-59 added at end of ~24 h incubation), Replicate 2",24%
same,S-59 concentration,"[2]; Test unit (S-59 150 added before incubation), PAS/plasma platelets + K. pneumoniae, 22° C., T_0, Avg.",152 µM
same,S-59 concentration,"[2]; Test unit (S-59 added before incubation), platelets + K. pneumoniae, T_0, Replicate 1",149 µM
same,S-59 concentration,"[2]; Test unit (S-59 added before incubation), platelets + K. pneumoniae, T_0, Replicate 2",155 µM
same,S-59 concentration,"[2]; Test unit (S-59 added before incubation), platelets + K. pneumoniae, T_24h, Avg.",153 µM
same,S-59 concentration,"[2]; Test unit (S-59 added before incubation), T_24h, Replicate 1",149 µM
same,S-59 concentration,"[2]; Test unit (S-59 added before incubation), T_24h, Replicate 2",157 µM
same,S-59 concentration,"[2]; Test unit (S-59 added before incubation), T_Post-UVA, Avg.",26 µM
same,S-59 concentration,"[2]; Test unit (S-59 added before incubation), T_Post-UVA, Replicate 1",27 µM
same,S-59 concentration,"[2]; Test unit (S-59 added before incubation), T_Post-UVA, Replicate 2",24 µM
same,% S-59 conversion,"[2]; Test unit (S-59 added before incubation), Avg.",17%
same,% S-59 conversion,"[2]; Test unit (S-59 added before incubation), Replicate 1",18%
same,% S-59 conversion,"[2]; Test unit (S-59 added before incubation), Replicate 2",15%
same,K. pneumoniae Log Reduction,K. pneumoniae; [3],>7.3 Log
same,K. pneumoniae Titer Post-UVA,K. pneumoniae; [3],<−0.7 log cfu/mL
same,K. pneumoniae Log Reduction,K. pneumoniae; [4],>6.3 Log
same,K. pneumoniae Titer Post-UVA,K. pneumoniae; [4],<−0.7 log cfu/mL
same,K. pneumoniae Log Reduction,K. pneumoniae; [5],>7.3 Log
same,K. pneumoniae Titer Post-UVA,K. pneumoniae; [5],<−0.7 log cfu/mL
same,K. pneumoniae Log Reduction,K. pneumoniae; [6],>6.2 Log
same,K. pneumoniae Titer Post-UVA,K. pneumoniae; [6],<−0.7 log cfu/mL
same,photochemical inactivation of K. pneumoniae,"K. pneumoniae; post-UVA, both the control and test units",High level inactivation
same,FCV titer after UVA,FCV; [7],5.65 log PFU/mL
same,FCV log inactivation,FCV; [7],0.19 log/mL
same,FCV titer after UVA,FCV; [8],4.49 log PFU/mL
same,FCV log inactivation,FCV; [8],1.35 log/mL
same,FCV titer after UVA,FCV; [9],2.22 log PFU/mL
same,FCV log inactivation,FCV; [9],3.62 log/mL
same,FCV titer after UVA,FCV; [10],0.52 log PFU/mL
same,FCV log inactivation,FCV; [10],5.32 log/mL
same,FCV titer after UVA,FCV; [11],4.91 log PFU/mL
same,FCV log inactivation,FCV; [11],0.93 log/mL
same,FCV titer after UVA,FCV; [12],2.00 log PFU/mL
same,FCV log inactivation,FCV; [12],3.84 log/mL
same,FCV titer after UVA,FCV; [13],<1.22 log PFU/mL
same,FCV log inactivation,FCV; [13],4.62 log/mL
same,FCV titer after UVA,FCV; [14],<−0.22 log PFU/mL
same,FCV log inactivation,FCV; [14],5.62 log/mL
same,FCV titer after UVA,FCV; [15],4.90 log PFU/mL
same,FCV log inactivation,FCV; [15],0.94 log/mL
same,FCV titer after UVA,FCV; [16],<0.22 log PFU/mL
same,FCV log inactivation,FCV; [16],5.62 log/mL
same,FCV titer after UVA,FCV; [17],<−0.48 log PFU/mL
same,FCV log inactivation,FCV; [17],5.84 log/mL
same,FCV titer after UVA,FCV; [18],<−0.30 log PFU/mL
same,FCV log inactivation,FCV; [18],5.84 log/mL
same,FCV titer after UVA,FCV; [19],4.33 log PFU/mL
same,FCV log inactivation,FCV; [19],1.51 log/mL
same,FCV titer after UVA,FCV; [20],<0.22 log PFU/mL
same,FCV log inactivation,FCV; [20],5.62 log/mL
same,FCV titer after UVA,FCV; [21],<−0.48 log PFU/mL
same,FCV log inactivation,FCV; [21],5.84 log/mL
same,FCV titer after UVA,FCV; [22],<−0.48 log PFU/mL
same,FCV log inactivation,FCV; [22],5.84 log/mL
same,FCV inactivation,"FCV; pre-incubation 4, 8 or 24 hours at 150 μM and 90 μM, 8 or 24 hours at 30 μM, 24 hours at 15 μM",greater than 4 logs
same,FCV inactivation,"FCV; pre-incubation 4 hr, 30 μM S-59",~4 logs
same,FCV inactivation,"FCV; pre-incubation 8 hr, 15 μM S-59",greater than 3.5 logs
